How the values were obtained:
Format in all cases: in vivo, mouse
[1] = system: C57Bl/6 mice with MOG35-55 peptide-induced EAE; assay: Clinical scoring of MOG35-55-induced EAE; settings: for effectiveness of prolonged treatment on disease severity / effect on advanced EAE (clinical symptoms): advanced disease; for effectiveness of prolonged treatment on disease severity: prolonged treatment from day 60 (FIG. 1C); for effect on advanced EAE (clinical symptoms): mAb three injections from day 51, neuroprotectors 7 days from day 60 (FIG. 1B); for effect on development of EAE (clinical symptoms): early disease, treatment from day 35 (FIG. 1A)
Procedure: (§1) C57Bl/6 mice (8–10 week old) were injected subcutaneously in one flank with 300 μg of MOG35-55 peptide ([…]: SEQ ID NO:1) synthesized by Mimotapes Pty Ltd, Clayton, Australia and emulsified in CFA containing 500 μg of Mycobacterium tuberculosis H37Ra (DIFCO Laboratories, Detrit, USA). They also received 500 ng of pertussis toxin (List Biological Laboratories, CA, USA) in 200 μl PBS intravenously via the tail vein, followed 48 hours later by a second dose. A second injection of MOG peptide was given in the absence of pertussis toxin one week later in the opposite flank, as described previously (Kanwar et al., 2000b).
(§2) Two treatment protocols were employed, involving the treatment of early disease, versus advanced disease. For early disease, reagents were administered at day 35 (following MOG injection). Antibody was administered thrice on alternate days, whereas neuroprotectors were given daily for 6 days, where 50% of reagent was given ip and 50% iv. In the treatment of advanced disease, therapy as above was initiated at day 60, with either three or eight anti-MAdCAM-1 mAb injections, and neuroprotectors given daily for either 7 or 18 days.
The mice were monitored daily and scored according to the following scale: 0, no clinical signs of EAE; 1, limp tail; 2, partial hind limb paralysis; 3, complete hind limb paralysis; 4, complete hind limb and partial fore limb paralysis; 5, paralysis extending to diaphragm; 6, hind and fore limb paralysis; 7, death due to EAE. Paralysis extending to the diaphragm was denoted as difficulty in remaining upright. […] The daily mean clinical score for each group is the mean disease score of at least five mice. The body weight of animals was measured regularly throughout the experiments. The expanded disability status scale for EAE treated mice was scored using an earlier published scoring system (Villoslada et al. 2000).
The rat hybridoma MECA-367 (rat IgG2a),5 which secretes a mAb against mouse MAdCAM-1 was either provided by Dr Eugene Butcher, Stanford University, Stanford, Calif. (FIGS. 1A and B), or obtained directly from the American Type Culture Collection, Rockville, Md. (FIG. 1C, and remainder of studies). Rat IgG obtained from Sigma Co., USA, served as a control. Antibodies were administered into the tail vein (70% of mAb) and intraperitoneally (30% of mAb) at 10 mg/Kg separately or in combination on alternate days at the time points indicated (FIGS. 1–4). The rat IgG control antibody was also administered at 10 mg/Kg. Backbones from sacrificed mice were frozen in isopentane at −70° C. Transverse 10 μm sections made through the spinal cord of control and diseased mice, in each case made at the same levels of the cord, were mounted on poly L-lysine-coated slides, and stained with haematoxylin and eosin.

[2] = system: C57Bl/6 mice with MOG35-55 peptide-induced EAE; assay: Neuropathology scoring of spinal cord sections (pathology status scale); settings: for Pathology status scale: Oligodendrocytes** / Pathology status scale: Remyelination**: reverse scores; for Pathology status scale: Axonal damage / Pathology status scale: Demyelination / Pathology status scale: Inflammation: scored 0 to 5; for Total scores After treatment (pathology status scale): sum over the six pathology parameters after treatment; for cumulative scores for inflammation, demyelination, remyelination, apoptosis, oligodendrocyte loss, and axonal damage following treatment: text statement of Table 2 totals
Procedure: as §1, §2
Mice were perfused through the left cardiac ventricle with ice-cold PBS or glutaraldehyde, and the CNS including brain and spinal cord were prepared for frozen or epoxy sections, respectively. Thin slices were taken at all levels of the CNS including spinal cord (cervical, midthoracic, T11, T12/13, upper lumbar, L6, L7 and sacral) and sacral roots. One-μm thick epoxy sections taken from different levels of the spinal cord were stained with toluidine blue, and examined by light microscopy by an investigator blinded to the sample identity. Multiple sections from the spinal cord were scored from 0 to 5 for inflammation, demyelination, remyelination, and axonal necrosis or damage, using a previously published scoring system (Moore et al., 2000).

[3] = system: dephosphorylated neurofilament-H; assay: Axonal damage: dephosphorylated neurofilament-H in spinal cord (Western blot, immunohistochemistry); settings: for average relative densities of neurofilament-H: spinal cord homogenates, Western blot, 6.1 for rat IgG or PBS treated control mice; for effect on amount of axonal damage: spinal cord, dephosphorylated neurofilament-H
From the text: (§3) Frozen sections from lumbar spinal cord (10 μm) were acetone-fixed and immunostained for oligodendrocyte content with an antibody against CNPase (Sigma; diluted 1:100); for axonal damage with an antibody against non-phosphorylated neurofilament-H (SM 1-32; Stemberger Monoclonals Incorporated, Lutherville, Md., USA; diluted 1:1000), and for GluR2 and NR1 content using mouse mAbs obtained from Zymed Laboratories Inc., Carlton, San Francisco, Calif. Antibody staining was visualized with an avidin:biotinylated enzyme complex (Vector Laboratories, Burlingame, Calif., USA). Sections were viewed under a light microscope, and cells stained with the anti-CNPase and SM 1-32 antibodies were counted.
PBS-perfused spinal cords were homogenized in lysis buffer (50 mM Tris pH 7.4, 100 μM EDTA, 0.25 M sucrose, 1% sodium dodecyl sulfate [SDS], 1% Nonidet P-40 [NP40], 1 μg/mL leupeptin, 1 μg/mL pepstatin A, and 100 μM phenylmethylsulfonylfluoride) at 4° C. using a motor-driven homogenizer (Virtus, Gardiner, N.Y.). Spinal cord lysates from each group of mice were pooled and centrifuged at 10000 g for 10 minutes at 4° C. to remove tissue debris. Protein concentrations of the supernatants were determined as described (Peterson, 1983), and 100 μg of protein resolved on 10% polyacrylamide SDS-gels under reducing conditions and then electrophoretically transferred to Hybond C Extra nitrocellulose membranes (Amersham Life Science, England). The membranes were blocked with 3% bovine serum albumin in TBS-T (20 mM Tris, 137 mM NaCl, pH 7.6 containing 0.1% Tween-20) for 2 hours at room temperature. Immunodetection was accomplished by incubation overnight at 4° C. with SM1-32 (1:500 dilution), anti-CNPase (1:100 dilution) antibody, or anti-GluR2 and NR1 mAbs (1:200 dilution). The membranes were washed thrice with TBS-T and incubated with horseradish peroxidase-conjugated anti-mouse IgG (Sigma) diluted 1:5000 in TBS-T. Immunoreactivity was detected by Enhanced Chemiluminescence (Amersham International plc. England) and autoradiography.

[4] = system: NMDA receptor subunit NR1; assay: NMDA receptor subunit NR1 expression in spinal cord; settings: spinal cord of EAE mice, immunohistochemistry and Western blot
From the text: as §3
PBS-perfused spinal cords were homogenized in lysis buffer (50 mM Tris pH 7.4, 100 μM EDTA, 0.25 M sucrose, 1% sodium dodecyl sulfate [SDS], 1% Nonidet P-40 [NP40], 1 μg/mL leupeptin, 1 μg/mL pepstatin A, and 100 μM phenylmethylsulfonylfluoride) at 4° C. using a motor-driven homogenizer (Virtus, Gardiner, N.Y.). […] Protein concentrations of the supernatants were determined as described (Peterson, 1983), and 100 μg of protein resolved on 10% polyacrylamide SDS-gels under reducing conditions and then electrophoretically transferred to Hybond C Extra nitrocellulose membranes (Amersham Life Science, England). […]

Row | Compound | effectiveness of prolonged treatment on disease severity [1] | effect on advanced EAE (clinical symptoms) [1] | effect on development of EAE (clinical symptoms) [1] | Pathology status scale: Apoptosis ([2]; day 45) | Pathology status scale: Oligodendrocytes** ([2]; day 45) | Pathology status scale: Remyelination** ([2]; day 45) | Pathology status scale: Axonal damage ([2]; day 45) | Pathology status scale: Demyelination ([2]; day 45) | Pathology status scale: Inflammation ([2]; day 45) | Pathology status scale: Apoptosis ([2]; day 60) | Pathology status scale: Oligodendrocytes** ([2]; day 60) | Pathology status scale: Remyelination** ([2]; day 60) | Pathology status scale: Axonal damage ([2]; day 60) | Pathology status scale: Demyelination ([2]; day 60) | Pathology status scale: Inflammation ([2]; day 60) | Pathology status scale: Apoptosis ([2]; day 65) | Pathology status scale: Oligodendrocytes** ([2]; day 65) | Pathology status scale: Remyelination** ([2]; day 65) | Pathology status scale: Axonal damage ([2]; day 65) | Pathology status scale: Demyelination ([2]; day 65) | further results
1 | Gly-Pro-Glu [GPE] | NBQX+GPE+anti-MAdCAM-1>NBQX+GPE>NBQX>GPE | only caused temporary remission | suppressed EAE, up to 27 days after suspension of treatment | 3 | 3 | 2 | 3 | 3 | 2 | 3 | 3 | 3 | 3 | 3 | 3 | 2 | 2 | 2 | 2 | 2 | Pathology status scale: Inflammation ([2]; day 65): 2; Pathology status scale: Apoptosis ([2]; day 70): 3; Pathology status scale: Oligodendrocytes** ([2]; day 70): 2; Pathology status scale: Remyelination** ([2]; day 70): 2; Pathology status scale: Axonal damage ([2]; day 70): 3; Pathology status scale: Demyelination ([2]; day 70): 3; Pathology status scale: Inflammation ([2]; day 70): 2; Pathology status scale: Apoptosis ([2]; day 119): 2; Pathology status scale: Oligodendrocytes** ([2]; day 119): 2; Pathology status scale: Remyelination** ([2]; day 119): 1; Pathology status scale: Axonal damage ([2]; day 119): 2; Pathology status scale: Demyelination ([2]; day 119): 2; Pathology status scale: Inflammation ([2]; day 119): 1; Total scores After treatment (pathology status scale) [2]: 55; cumulative scores for inflammation, demyelination, remyelination, apoptosis, oligodendrocyte loss, and axonal damage following treatment [2]: 55; average relative densities of neurofilament-H [3]: 3.2; effect on amount of axonal damage [3]: almost halved the amount of axonal damage; NMDA receptor (NR1 subunit) expression [4]: not effective
2 | NS(=O)(=O)c1cccc2c1c([N+](=O)[O-])cc1nc(O)c(O)nc12 [NBQX, 2,3-dihydroxy-6-nitro-7-sulfamoylbenzo(f)quinoxaline] | NBQX+GPE+anti-MAdCAM-1>NBQX+GPE>NBQX>GPE | only caused temporary remission | suppressed EAE, but to a greater extent than achieved with GPE | 2 | 2 | 3 | 2 | 2 | 3 | 3 | 3 | 2 | 3 | 3 | 3 | 2 | 2 | 2 | 1 | 2 | Pathology status scale: Inflammation ([2]; day 65): 2; Pathology status scale: Apoptosis ([2]; day 70): 1; Pathology status scale: Oligodendrocytes** ([2]; day 70): 1; Pathology status scale: Remyelination** ([2]; day 70): 2; Pathology status scale: Axonal damage ([2]; day 70): 1; Pathology status scale: Demyelination ([2]; day 70): 1; Pathology status scale: Inflammation ([2]; day 70): 2; Pathology status scale: Apoptosis ([2]; day 119): 2; Pathology status scale: Oligodendrocytes** ([2]; day 119): 2; Pathology status scale: Remyelination** ([2]; day 119): 1; Pathology status scale: Axonal damage ([2]; day 119): 2; Pathology status scale: Demyelination ([2]; day 119): 2; Pathology status scale: Inflammation ([2]; day 119): 1; Total scores After treatment (pathology status scale) [2]: 46; cumulative scores for inflammation, demyelination, remyelination, apoptosis, oligodendrocyte loss, and axonal damage following treatment [2]: 46; average relative densities of neurofilament-H [3]: 3.5; effect on amount of axonal damage [3]: almost halved the amount of axonal damage; NMDA receptor (NR1 subunit) expression [4]: caused down-regulation of the NMDA receptor

From US7192931B2, “Treatment of demyelinating diseases” (Neuren Pharmaceuticals Ltd., priority 2000, dated 2007)
